In brackets after ≈: the same amount, converted by molar mass. Read-outs that look alike come from different tables or passages of the source.
Tests used:
[1] = tested on: S. Typhimurium LT2 wild-type (WT) strain; assay: Dose-response assay (MIC and MBC determination) in M9 broth; assay type: cell-based, Salmonella enterica subsp. enterica serovar Typhimurium; settings: 12 hrs at 37 °C, read-out: MBC (minimal bactericidal concentration)
Experimental: Typhimurium using high-throughput screening assay in a 96-well plate format. […] Plates were incubated in a Sunrise Tecan kinetic microplate reader for 12 hrs at 37 °C and the optical density (OD) was measured at 600 nm. The percentage of growth inhibition was calculated as: […]. Cultures from wells showing no turbidimetric increase were transferred onto a XLT4 agar plate. Plates were incubated at 37 °C for 36 hrs. […] S. Typhimurium was challenged with a determined concentration of SM as described in the primary screen.

Salmonella Heidelberg = assay: Dose-response assay (MBC) on Salmonella serovars; assay type: cell-based; settings: Salmonella enterica; serovar Heidelberg, M9 broth
Salmonella Javiana = assay: Dose-response assay (MBC) on Salmonella serovars; assay type: cell-based, Salmonella enterica
[2] = tested on: nine Salmonella serotypes; assay: Activity spectrum and dose-response across Salmonella serotypes; assay type: cell-based, Salmonella enterica; settings: for Effect against the nine Salmonella serotypes: 200 µM, M9 broth; for MBC: Salmonella, read-out: MBCs among the nine serotypes
Experimental: The 128 SMs inhibiting S. Typhimurium growth (20% or higher) were tested for their antimicrobial effect on nine different Salmonella serovars frequently implicated in foodborne gastroenteritis outbreaks. […] Both screens were performed at 200 µM as described in the primary screening. Growth conditions for each strain are described in Supplementary Table S2.
S. Typhimurium was challenged with a determined concentration of SM as described in the primary screen.

[3] = tested on: biofilm embedded S. Typhimurium; assay: MBEC high-throughput assay on biofilm; assay type: cell-based, Salmonella enterica subsp. enterica serovar Typhimurium; settings: 18 hrs incubation; for MBC on biofilm embedded Salmonella: M9 medium; for Cidal concentration on biofilm relative to planktonic MBC: compared to planktonic dose-response in parallel
Experimental: The antimicrobial efficacy of the four SMs was tested on biofilm embedded S. Typhimurium as previously described. Briefly, 150 µl of an overnight suspension of S. Typhimurium normalized to 0.05 OD600 in LB medium was transferred into each well of a sterile, non-treated, flat bottom 96-well plate. The plate was covered using the lid containing the pegs (Innovotech), sealed with parafilm, and incubated for 36 hrs at 37 °C. […] The plate was incubated for 18 hrs at 37 °C, 110 rpm in the dark. After incubation, the pegs were transferred to a new 96-well plate containing 200 µl of sterile water and sonicated for 60 min at room temperature (Aquasonic model 50HT, VWR). Removal of the biofilm was confirmed by crystal violet staining. The supernatant was ten-fold serial diluted, plated on an agar plate, and incubated at 37 °C for 36 hrs. The lowest SM concentration giving a complete clearance was considered as MBEC. […] In parallel to this experiment, a dose-response assay with planktonic cells was conducted as described above.

S. Typhimurium = assay type: cell-based, Salmonella enterica subsp. enterica serovar Typhimurium; settings: lethal dose (2X MBC) on solid medium or repeated exposure to sub-lethal dose (0.75X MBC) in liquid medium
[4] = tested on: S. Typhimurium membrane permeability; assay: Crystal violet uptake assay; assay type: cell-based, Salmonella enterica subsp. enterica serotype Typhimurium; settings: 1 hr, lethal dose (5X MBC); for Reduction of crystal violet uptake: compared to 1% DMSO control
Experimental: (§1) Figure S2. Estimation of the membrane permeability of Salmonella enterica subsp. enterica serotype Typhimurium strain JSG626 after small molecule (SM) treatment. (A) Crystal […]
(§2) Treatments were normalized based on 10 μg/ml of crystal violet solution (no uptake […]
(§3) different than the 1% DMSO control (P<0.01); n= 9. (B) Loss of 260 nm absorbing materials from S. Typhimurium cell content. 260 nm absorbing materials were measured […]
(§4) standard deviation; *: the amount of 260 nm absorbing material in supernatant was […]
(§5) Both experiments were performed as previously described (1).
(§6) (also on this page, place not known: updtae (%) (ng/µl) Crystal violet 260 nm absorbing material) […]

[5] = tested on: S. Typhimurium cell content; assay: Loss of 260 nm absorbing materials; assay type: cell-based, Salmonella enterica subsp. enterica serotype Typhimurium; settings: 1 hr, lethal dose (5X MBC), compared to 1% DMSO control
Experimental: as §1, §2, §3, §4, §5, §6

chicken red blood cells = assay: Hemolytic activity; assay type: cell-based; settings: chicken RBCs, 200 µM, 1 hr
Experimental: (§7) Briefly, 200 µl of 10% sheep or chicken RBC suspension was incubated with 1 µl of SMs (200 µM) for 1 hr at 37 °C in a 96-well plate. After incubation, the plate was centrifuged at 3700 X g for 5 min at 4 °C and then placed on ice for five min. One hundred microliters of the supernatant were transferred into a fresh 96-well plate, and the OD was measured at 540 nm. One percent DMSO and 0.1% Triton-100X were used as negative and positive controls, respectively. Percentage hemolysis was calculated as: [(OD540 SM − OD540 DMSO)/(OD540 1X triton − OD540 PBS)] × 100.

sheep red blood cells = assay: Hemolytic activity; assay type: cell-based; settings: sheep RBCs, 200 µM, 1 hr
Experimental: as §7

[6] = tested on: Galleria mellonella larvae; assay: Toxicity on G. mellonella larvae; assay type: in vivo; settings: uninfected larvae, single treatment with 12.5 µg of SM, 72 hrs
Experimental: Galleria mellonella larvae (fifth instar stage) were incubated for 12 hrs at 37 °C in the dark. After incubation, only larvae with a white creamy phenotype and a body weight ranging between 225 to 275 mg were selected for the study. […] Larval survival was monitored on 12 hrs intervals. Not treated larvae, larvae treated with the buffer mix, and larvae treated with 12.5 µg of chloramphenicol were used as controls.

[7] = tested on: S. Typhimurium in Caco-2 cells; assay: S. Typhimurium survival in infected cell lines; assay type: cell-based, Salmonella enterica subsp. enterica serotype Typhimurium; settings: Salmonella enterica, internalized S. Typhimurium, 24 hrs; for IC50: estimated
Experimental: (§8) The ability of four SMs to clear S. Typhimurium was evaluated using three cell lines (Caco-2 cells, HD11, and THP-1 cells) as previously described. A multiplicity of infection (MOI) of 10 was used. Infected cells were treated with 1 µl of SMs (final concentration ranged between 100 µM and 6.25 µM) and incubated at 37 °C for 24 hrs in humidified, 5% CO2 incubator. Following incubation, cells were washed once with 1X PBS, lysed with 0.1% Triton-100X, serial ten-fold diluted in 1X PBS, and plated on agar plate. Plates were incubated at 37 °C for 24 hrs to determine the intracellular bacteria. Cells not infected and not treated, and cells infected and treated with 2% DMSO were used as controls.

[8] = tested on: S. Typhimurium in HD11 cells; assay: S. Typhimurium survival in infected cell lines; assay type: cell-based, Salmonella enterica subsp. enterica serotype Typhimurium; settings: Salmonella enterica, internalized S. Typhimurium, 24 hrs; for IC50: estimated
Experimental: as §8

[9] = tested on: S. Typhimurium in THP-1 cells; assay: S. Typhimurium survival in infected cell lines; assay type: cell-based, Salmonella enterica subsp. enterica serotype Typhimurium; settings: Salmonella enterica, internalized S. Typhimurium, 24 hrs; for IC50: estimated
Experimental: as §8

| Compound | MBC ([1]; Salmonella enterica) | MBC (Salmonella Heidelberg) | MBC (Salmonella Javiana) | Effect against the nine Salmonella serotypes [2] | MBC [2] | MBC on biofilm embedded Salmonella [3] | Cidal concentration on biofilm relative to planktonic MBC [3] | Resistance development of S. Typhimurium (S. Typhimurium) | Reduction of crystal violet uptake [4] | Increase in 260 nm-absorbing material [5] | Hemolytic activity (chicken red blood cells) | Hemolytic activity (sheep red blood cells) | Larva survival [6] | MBC [7] | IC50 [7] | MBC [8] | IC50 [8] | MBC [9] | IC50 [9] | MBC [1] | other results |
| --- | --- | --- | --- | --- | --- | --- | --- | --- | --- | --- | --- | --- | --- | --- | --- | --- | --- | --- | --- | --- | --- |
| CC1CCC(C(C)C)C(OC(=O)Cn2c[n+](CC(=O)OC3CC(C)CCC3C(C)C)c3ccccc32)C1 (stereo not drawn) [SM1] | 50 µM | 100 µM | 100 µM | cidal | 50 to 100 µM | 40 µM | 0.8 X MBC | no resistance was observed | 1.88 fold | 2.18 fold | > 50% | > 50% | 66% | 25 µM | 12.5 to 25 µM | 6.25 µM | < 3.21 µM | 100 µM | < 50 µM | – | – |
| CCCCCCCCCCCCCCCC[n+]1ccn(CC#N)c1 [SM3] | 25 µM | 50 µM | 25 µM | cidal | 25 to 50 µM | 15 µM | 0.6 X MBC | no resistance was observed | 4.46 fold | 7.17 fold | below 49% | below 18% | 85% | 50 µM | 12.5 to 25 µM | 50 µM | < 25 µM | 50 µM | 25 to 50 µM | 25 µM | – |
| CCOc1cc(/C=N/N=C(N)N)ccc1OCc1ccc(Cl)cc1 [SM5] | 25 µM (≈ 8.67 µg/mL) | 50 µM (≈ 17.3 µg/mL) | 50 µM (≈ 17.3 µg/mL) | – | 25 to 100 µM (≈ 8.67 to 34.7 µg/mL) | 25 µM (≈ 8.67 µg/mL) | – | no resistance was observed | – | 5.25 fold | lower than 1% | lower than 1% | 92% | 12.5 µM (≈ 4.34 µg/mL) | 6.25 to 12.5 µM | 25 µM (≈ 8.67 µg/mL) | < 12.5 µM | 50 µM (≈ 17.3 µg/mL) | < 25 µM | 25 µM (≈ 8.67 µg/mL) | Increase in permeability (crystal violet uptake) ([4]; compared to 1% DMSO-treated cells): 2.32 fold |

Source: publication PMC6127322, “Novel Imidazole and Methoxybenzylamine Growth Inhibitors Affecting Salmonella Cell Envelope Integrity and its Persistence in Chickens” (Scientific Reports, 2018)
